Experimental data reported in ChEMBL document CHEMBL1130600, “Tropane-based amino acids for peptide structure-function studies: inhibitors of platelet aggregation” (Bioorg Med Chem Lett, 1998).

Organism: Homo sapiens
Assay: Compound was tested for its ability to inhibit the thrombin-induced platelet aggregation in washed human platelets
Type: functional

| IC50 [µM] | Compound |
| --- | --- |
| 370 | CC(=O)NC(CCCCN)C(=O)N1C2CCC(C(=O)NCCC(=O)O)C1CC2 (stereo unspecified) |
| 402 | NC(N)=NCCCC(N)C(=O)N1C2CCC1C(C(=O)NC(CC(=O)O)C(=O)NC(CO)C(=O)O)C2 (stereo unspecified) |
| 60 | CC(=O)NC(CCCCN)C(=O)N1CCCC(C(=O)NCCC(=O)O)C1 (stereo unspecified) |
| > 500 | CC(=O)NC(CCCCN)C(=O)N1C2CC=C(C(=O)NCCC(=O)O)C1CC2 (stereo unspecified) |
| 270 | NC(N)=NCCCC(N)C(=O)N1C2CC=C(C(=O)NC(CC(=O)O)C(=O)NC(CO)C(=O)O)C1CC2 (stereo unspecified) |
| 20 | CC(=O)N[C@H](CCCCN)C(=O)N1CCCC(C(=O)NCCC(=O)O)C1 (stereo partly specified) |
| 23 | NC(N)=NCCCC(N)C(=O)N1C2CCC(C(=O)NC(CC(=O)O)C(=O)NC(CO)C(=O)O)C1CC2 (stereo unspecified) |
| 30 | CC(=O)N[C@H](CCCCN)C(=O)N1C2CCC(C(=O)NCCC(=O)O)C1CC2 (stereo partly specified) |
| 160 | CC(=O)N[C@H](CCCCN)C(=O)N1C2CC=C(C(=O)NCCC(=O)O)C1CC2 (stereo partly specified) |

| Compound | IC50 [µM] |
| --- | --- |
| CC(=O)N[C@H](CCCCN)C(=O)N1C2CCC1C(C(=O)NCCC(=O)O)C2 (stereo partly specified) | > 500 |
| CC(=O)NC(CCCCN)C(=O)N1C2CCC1C(C(=O)NCCC(=O)O)C2 (stereo unspecified) | > 500 |
